Consider 10 molecules from US9428507B2, “Compounds for the treatment of malaria” (The Broad Institute, Inc., priority 2013, dated 2016).

Each structure is given as a SMILES string.

The assay deals with Dd2 strain of P. falciparum. The assay is described as follows: Activity against the Dd2 strain of P. falciparum (SYBR Green I, 72-h incubation). The assay is classed as cell-based. The following applies: Plasmodium falciparum, DD2, 72 h, read-out: EC^50 Dd2. Put shortly:
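SYBR Green I signal (ex 485, em 530 nm) measured growth, read after 24 h dark staining in saponin/Triton lysis buffer. Before that, compound-exposed Dd2 cultures (1% parasitemia, 1.0% hematocrit, 0.125% DMSO) grew 72 h at 37° C in low-oxygen gas. Background control: 20 μM mefloquine.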
On to `COc1ccc2c3c([nH]c2c1)[C@H](CC(F)(F)F)N(C(C)=O)CC31CCN(C(=O)Nc2ccccc2F)CC1` [Compound 74, (S)-2′-acetyl-N-(2-fluorophenyl)-7′-methoxy-1′-(2,2,2-trifluoroethyl)-1′,2′,3′,9′-tetrahydrospiro[piperidine-4,4′-pyrido[3,4-b]indole]-1-carboxamide], for which the EC50 was in the range of 30 to 130 nM.
With `COc1ccc2c3c([nH]c2c1)[C@H](CO)N(C(C)=O)CC31CCN(c2nc3ccccc3o2)CC1` [Compound 77, (R)-1-(1-(benzo[d]oxazol-2-yl)-1′-(hydroxymethyl)-7′-methoxyspiro [piperidine-4,4′-pyrido[3,4-b]indol]-2′(1′H,3′H,9′H)-yl)ethanone] the figure was 8500 nM.
In the case of `COc1ccc2c3c([nH]c2c1)[C@H](CO)N(Cc1cccc(F)c1)CC31CCN(Cc2ccccn2)CC1` [Compound 78, (R)-(2′-(3-fluorobenzyl)-7′-methoxy-1-(pyridin-2-ylmethyl)-1′,2′,3′,9′-tetrahydrospiro [piperidine-4,4′-pyrido[3,4-b]indol]-1′-yl)methanol] it was 905 nM; in that of `COc1ccc2c3c(n(C)c2c1)[C@H](CO)NCC31CCN(Cc2ccc(-c3ccccn3)cc2)CC1` [Compound 79, (R)-(7′-methoxy-9′-methyl-1-(4-(pyridin-2-yl)benzyl)-1′,2′,3′,9′-tetrahydrospiro [piperidine-4,4′-pyrido[3,4-b]indol]-1′-yl)methanol], 135 nM.
Consider `COc1ccc2c3c([nH]c2c1)[C@H](CO)N(C(=O)Nc1ccc(F)cc1)CC31CCN(S(=O)(=O)c2ccccc2)CC1` [Compound 80, (R)-N-(4-fluorophenyl)-1′-(hydroxymethyl)-7′-methoxy-1-(phenylsulfonyl)-3′,9′-dihydrospiro[piperidine-4,4′-pyrido[3,4-b]indole]-2′(1′H)-carboxamide], for which the EC50 was 1300 nM.
With `COc1ccc2c3c(n(C)c2c1)[C@H](CO)N(Cc1ccc2c(c1)OCO2)CC31CN(C(=O)c2ccc3c(c2)OCO3)C1` [Compound 81, (R)-benzo[d][1,3] dioxol-5-y1(2′-(benzo[d][1,3]dioxol-5-ylmethyl)-1′-(hydroxymethyl)-7′-methoxy-9′-methyl-1′,2′,3′,9′-tetrahydrospiro[azetidine-3,4′-pyrido[3,4-b]indol]-1-yl)methanone], the EC50 was determined as 130 nM.
In the case of `COc1ccc2c3c([nH]c2c1)[C@@H](CO)N(Cc1cccc(F)c1)CC31CCN(Cc2ccccn2)CC1` [Compound 82, (S)-(2′-(3-fluorobenzyl)-7′-methoxy-1-(pyridin-2-ylmethyl)-1′,2′,3′,9′-tetrahydrospiro [piperidine-4,4′-pyrido[3,4-b]indol]-1′-yl)methanol], the EC50 was 1520 nM.
Consider `COc1ccc2c3c(n(C)c2c1)[C@@H](CO)N(Cc1ccccc1OC)CC31CCN(CC2CC2)CC1` [Compound 83, (S)-(1-(cyclopropylmethyl)-7′-methoxy-2′-(2-methoxybenzyl)-9'-methyl-1′,2′,3′,9′-tetrahydrospiro [piperidine-4,4′-pyrido[3,4-b]indol]-1′-yl) methanol], for which the EC50 is 522 nM.
Turning to `COc1cccc(S(=O)(=O)N2CCC3(CC2)CN[C@H](CO)c2[nH]c4cc(OC)ccc4c23)c1` [Compound 84, (S)-(7′-methoxy-1-((3-methoxyphenyl)sulfonyl)-1′,2′,3′,9′-tetrahydrospiro [piperidine-4,4′-pyrido[3,4-b]indol]-1′-yl)methanol], the EC50 was 2530 nM.
`COc1ccc2c3c(n(C)c2c1)[C@H](CO)N(CC1CCCCC1)CC31CCN(Cc2nccs2)CC1` [Compound 85, (R)-(2′-(cyclohexylmethyl)-7′-methoxy-9′-methyl-1-(thiazol-2-ylmethyl)-1′,2′,3′,9′-tetrahydrospiro [piperidine-4,4′-pyrido[3,4-b]indol]-1′-yl)methanol]: the EC50 was determined as 1620 nM.
